Measurements taken from PMC9037833 (RSC Advances, 2021).

Biological target: T1, human A3AR (Homo sapiens, UniProt P0DMS8)
T1 sequence (P0DMS8 1-318): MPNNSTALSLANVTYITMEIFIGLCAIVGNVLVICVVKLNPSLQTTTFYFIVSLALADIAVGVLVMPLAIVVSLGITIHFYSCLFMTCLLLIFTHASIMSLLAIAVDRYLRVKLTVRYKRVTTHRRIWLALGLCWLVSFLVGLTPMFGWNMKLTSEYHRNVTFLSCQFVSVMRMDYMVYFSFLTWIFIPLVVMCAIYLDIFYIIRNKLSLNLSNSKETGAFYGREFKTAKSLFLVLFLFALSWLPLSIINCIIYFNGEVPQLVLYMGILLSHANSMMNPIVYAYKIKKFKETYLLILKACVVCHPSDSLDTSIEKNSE
Format: binding

Ki [nM] | fold higher A3AR affinity than 8a (ratio of Ki values vs 8a at hA3AR) [fold] | SMILES
970 ± 60 | – | CCSc1nc(N)c2ncn([C@H]3[C@H](O)[C@H](O)[C@]4(CO)C[C@H]34)c2n1 [Compound 8b, (1R,2R,3S,4R,5S)-4-(6-Amino-2-(ethylthio)-9H-purin-9-yl)-1-(hydroxymethyl)bicyclo[3.1.0]hexane-2,3-diol]
548 ± 44 | – | CCCCCCSc1nc(N)c2ncn([C@H]3[C@H](O)[C@H](O)[C@]4(CO)C[C@H]34)c2n1 [Compound 8c, (1R,2R,3S,4R,5S)-4-(6-Amino-2-(hexylthio)-9H-purin-9-yl)-1-(hydroxymethyl)bicyclo[3.1.0]hexane-2,3-diol]
1080 ± 90 | – | Nc1nc(SC2CCCCC2)nc2c1ncn2[C@H]1[C@H](O)[C@H](O)[C@]2(CO)C[C@H]12 [Compound 8d, (1R,2R,3S,4R,5S)-4-(6-Amino-2-(cyclohexylthio)-9H-purin-9-yl)-1-(hydroxymethyl)bicyclo[3.1.0]hexane-2,3-diol]
49.8 ± 5.5 | 30 | Nc1nc(SCc2ccccc2)nc2c1ncn2[C@H]1[C@H](O)[C@H](O)[C@]2(CO)C[C@H]12 [Compound 8e, (1R,2R,3S,4R,5S)-4-(6-Amino-2-(benzylthio)-9H-purin-9-yl)-1-(hydroxymethyl)bicyclo[3.1.0]hexane-2,3-diol]
291 ± 89 | – | Nc1nc(SCCc2ccccc2)nc2c1ncn2[C@H]1[C@H](O)[C@H](O)[C@]2(CO)C[C@H]12 [Compound 8f, (1R,2R,3S,4R,5S)-4-(6-Amino-2-(phenethylthio)-9H-purin-9-yl)-1-(hydroxymethyl)bicyclo[3.1.0]hexane-2,3-diol]
1140 ± 84 | – | COc1nc(N)c2ncn([C@H]3[C@H](O)[C@H](O)[C@]4(CO)C[C@H]34)c2n1 [Compound 8g, (1R,2R,3S,4R,5S)-4-(6-Amino-2-methoxy-9H-purin-9-yl)-1-(hydroxymethyl)bicyclo[3.1.0]hexane-2,3-diol]
